Assay [1] has as its system antibodies in sera from SARS patients (sera 1a, 1b, 2, 6, 37, 62, London, SARS-yellow, SARS-green). It is filed as binding, human. Set-up: Binding of serum 6 to linear peptides of protein X1 of SARS-CoV Urbani / Binding of serum 37 to linear peptides of protein X1 of SARS-CoV Urbani / Binding of serum 6 to looped/cyclic peptide (PEPSCAN-ELISA) / Binding of serum 37 to looped/cyclic peptide (PEPSCAN-ELISA) / Binding of serum 37 to looped/cyclic peptides of protein X1 of SARS-CoV Urbani / Binding of serum 6 to linear peptides of protein X2 / Binding of serum 37 to linear peptides of protein X2 / Binding of serum 37 to looped/cyclic peptides of protein X2 of SARS-CoV Urbani / Binding of serum 6 to linear peptides of protein M of SARS-CoV Urbani / Binding of serum 37 to linear peptides of protein M of SARS-CoV Urbani / Binding of serum 6 to looped/cyclic peptides of protein M of SARS-CoV Urbani / Binding of serum 37 to looped/cyclic peptides of protein M of SARS-CoV Urbani / Binding of serum 6 to linear peptides of protein X3 of SARS-CoV Urbani / Binding of serum 37 to linear peptides of protein X3 of SARS-CoV Urbani / Binding of serum 37 to looped/cyclic peptides of protein X3 of SARS-CoV Urbani / Binding of serum 6 to linear peptides of protein X4 of SARS-CoV Urbani / Binding of serum 37 to linear peptides of protein X4 of SARS-CoV Urbani / Binding of serum 37 to looped/cyclic peptides of protein X4 of SARS-CoV Urbani / Binding of serum 6 to linear peptides of protein X5 of SARS-CoV Urbani / Binding of serum 37 to linear peptides of protein X5 of SARS-CoV Urbani / Binding of serum 37 to looped/cyclic peptides of protein X5 of SARS-CoV Urbani / Binding of serum 6 to linear peptides of protein N of SARS-CoV Urbani / Binding of serum 37 to linear peptides of protein N of SARS-CoV Urbani / Binding of serum 6 to linear peptide (PEPSCAN-ELISA) / Binding of serum 1a to looped/cyclic peptides of protein N of SARS-CoV Urbani / Binding of serum 1b to looped/cyclic peptides of protein N of SARS-CoV Urbani / Binding of serum 2 to looped/cyclic peptides of protein N of SARS-CoV Urbani / Binding of serum 6 to looped/cyclic peptides of protein N of SARS-CoV Urbani / Binding of serum 37 to looped/cyclic peptides of protein N of SARS-CoV Urbani / Binding of serum 62 to looped/cyclic peptides of protein N of SARS-CoV Urbani / Binding of serum London to looped/cyclic peptides of protein N of SARS-CoV Urbani / Binding of serum SARS-green to looped/cyclic peptides of protein N of SARS-CoV Urbani: unit not given here.

Assay [2] deals with control sera (pooled serum of ten healthy LUMC hospital workers; commercial negative donor pooled serum from the Dutch bloodbank). Type of assay: binding, human. Set-up: Binding of Control serum LUMC to linear peptides / Binding of Control serum Blood-bank to linear peptides / Binding of Control serum LUMC to looped peptides / Binding of Control Serum Blood-Bank to Looped peptides / Binding of Control serum LUMC to linear peptides of the protein M of SARS-CoV Urbani / Binding of Control serum Blood-bank to linear peptides of the protein M of SARS-CoV Urbani / Binding of Control serum LUMC to looped peptides of the protein M of SARS-CoV Urbani / Binding of Control Serum Blood-Bank to Looped peptides of the protein M of SARS-CoV Urbani: unit not given here.

Assay [3] has as its system rabbit serum obtained by immunizing a rabbit with the SARS-CoV strain Frankfurt 1. Type of assay: binding. Set-up: Binding of a rabbit serum to linear peptides / Binding of a rabbit serum to looped peptides / Rabbit serum linear peptides / Rabbit serum looped peptides / Binding of a rabbit serum to linear peptides of protein N of SARS-CoV Urbani (Rabbit serum linear peptides) / Binding of a rabbit serum to looped/cyclic peptides of protein N of SARS-CoV Urbani (Rabbit serum looped peptides): unit not given here.

Consider four sequences from US20070128217A1 (priority 2003, published 2007).

Regarding ALYKGFQFICNLLLL, in assay [1], the “Binding of serum 1a to linear peptides of protein X1 of SARS-CoV Urbani” value was found to be 0.6, the “Binding of serum 1a to looped/cyclic peptide (PEPSCAN-ELISA)” value is 0.4, the “Binding of serum 1b to linear peptides of protein X1 of SARS-CoV Urbani” value is recorded as 0.5 and the “Binding of serum 1b to looped/cyclic peptide (PEPSCAN-ELISA)” value is 0.3. Further, in assay [1], the “Binding of serum 2 to linear peptides of protein X1 of SARS-CoV Urbani” value stood at 0.4, the “Binding of serum 2 to looped/cyclic peptide (PEPSCAN-ELISA)” value stood at 0.3, the “Binding of serum 6 to linear peptides of protein X1 of SARS-CoV Urbani” value was found to be 0.4 and the “Binding of serum 6 to looped/cyclic peptide (PEPSCAN-ELISA)” value is given as 1.3. Also, in assay [1], the “Binding of serum 37 to linear peptides of protein X1 of SARS-CoV Urbani” value is on record as 0.5, the “Binding of serum 37 to looped/cyclic peptide (PEPSCAN-ELISA)” value amounted to 0.4, the “Binding of serum 62 to linear peptides of protein X1 of SARS-CoV Urbani” value is on record as 0.5 and the “Binding of serum 62 to looped/cyclic peptide (PEPSCAN-ELISA)” value came to 0.4. Besides, in assay [1], the “Binding of serum London to linear peptides of protein X1 of SARS-CoV Urbani” value came to 0.2, the “Binding of serum London to looped/cyclic peptide (PEPSCAN-ELISA)” value stood at 1.4, the “Binding of serum SARS-green to linear peptides of protein X1 of SARS-CoV Urbani” value is 0.2 and the “Binding of serum SARS-green to looped/cyclic peptide (PEPSCAN-ELISA)” value is reported as 0.2. Also, in assay [1], the “Binding of serum SARS-yellow to linear peptides of protein X1 of SARS-CoV Urbani” value came to 0.5 and the “Binding of serum SARS-yellow to looped/cyclic peptide (PEPSCAN-ELISA)” value is 0.4. In assay [2], the “Binding of Control Serum Blood-Bank to Looped peptides” value worked out at 0.5, the “Binding of Control serum Blood-bank to linear peptides” value is on record as 0.6, the “Binding of Control serum LUMC to linear peptides” value was 0.5 and the “Binding of Control serum LUMC to looped peptides” value is on record as 0.5. Further, in assay [3], the “Binding of a rabbit serum to linear peptides” value is on record as 0.6 and the “Binding of a rabbit serum to looped peptides” value was 0.4.
Turning to ARSVSPKLFIRQEEV, in assay [1], the “Binding of serum 1a to linear peptides of protein X4 of SARS-CoV Urbani” value came to 0.7, the “Binding of serum 1a to looped/cyclic peptides of protein X4 of SARS-CoV Urbani” value worked out at 0.8, the “Binding of serum 1b to linear peptides of protein X4 of SARS-CoV Urbani” value amounted to 0.6 and the “Binding of serum 1b to looped/cyclic peptides of protein X4 of SARS-CoV Urbani” value was determined as 0.5. Besides, in assay [1], the “Binding of serum 2 to linear peptides of protein X4 of SARS-CoV Urbani” value is 0.5, the “Binding of serum 2 to looped/cyclic peptides of protein X4 of SARS-CoV Urbani” value came out at 0.7, the “Binding of serum 6 to linear peptides of protein X4 of SARS-CoV Urbani” value stood at 0.6 and the “Binding of serum 6 to looped/cyclic peptides of protein X4 of SARS-CoV Urbani” value came to 0.5. In assay [1], the “Binding of serum 37 to linear peptides of protein X4 of SARS-CoV Urbani” value is on record as 0.7, the “Binding of serum 37 to looped/cyclic peptides of protein X4 of SARS-CoV Urbani” value was determined as 0.7, the “Binding of serum 62 to linear peptides of protein X4 of SARS-CoV Urbani” value is reported as 0.7 and the “Binding of serum 62 to looped/cyclic peptides of protein X4 of SARS-CoV Urbani” value was 0.6. In addition, in assay [1], the “Binding of serum London to linear peptides of protein X4 of SARS-CoV Urbani” value stood at 0.7, the “Binding of serum London to looped/cyclic peptides of protein X4 of SARS-CoV Urbani” value is 0.3, the “Binding of serum SARS-green to linear peptides of protein X4 of SARS-CoV Urbani” value came to 0.6 and the “Binding of serum SARS-green to looped/cyclic peptides of protein X4 of SARS-CoV Urbani” value is given as 0.6. Moreover, in assay [1], the “Binding of serum SARS-yellow to linear peptides of protein X4 of SARS-CoV Urbani” value is recorded as 0.1 and the “Binding of serum SARS-yellow to looped/cyclic peptides of protein X4 of SARS-CoV Urbani” value is 0.5. In assay [2], the “Binding of Control Serum Blood-Bank to Looped peptides” value is given as 0.7, the “Binding of Control serum Blood-bank to linear peptides” value was 0.7, the “Binding of Control serum LUMC to linear peptides” value was 0.6 and the “Binding of Control serum LUMC to looped peptides” value came out at 0.7. Further, in assay [3], the “Rabbit serum linear peptides” value is recorded as 0.3 and the “Rabbit serum looped peptides” value came out at 0.2.
With ARTRSMWSFNPETNI, in assay [1], the “Binding of serum 1a to linear peptides of protein M of SARS-CoV Urbani” value is reported as 0.9, the “Binding of serum 1a to looped/cyclic peptides of protein M of SARS-CoV Urbani” value is reported as 0.7, the “Binding of serum 1b to linear peptides of protein M of SARS-CoV Urbani” value amounted to 0.8 and the “Binding of serum 1b to looped/cyclic peptides of protein M of SARS-CoV Urbani” value is listed as 0.1. Also, in assay [1], the “Binding of serum 2 to linear peptides of protein M of SARS-CoV Urbani” value is 0.6, the “Binding of serum 2 to looped/cyclic peptides of protein M of SARS-CoV Urbani” value was 0.9, the “Binding of serum 6 to linear peptides of protein M of SARS-CoV Urbani” value was 0.7 and the “Binding of serum 6 to looped/cyclic peptides of protein M of SARS-CoV Urbani” value is given as 0.6. Further, in assay [1], the “Binding of serum 37 to linear peptides of protein M of SARS-CoV Urbani” value is recorded as 0.6, the “Binding of serum 37 to looped/cyclic peptides of protein M of SARS-CoV Urbani” value was found to be 0.8, the “Binding of serum 62 to linear peptides of protein M of SARS-CoV Urbani” value is given as 0.5 and the “Binding of serum 62 to looped/cyclic peptides of protein M of SARS-CoV Urbani” value is 0.8. Further, in assay [1], the “Binding of serum London to linear peptides of protein M of SARS-CoV Urbani” value is 0.4, the “Binding of serum London to looped/cyclic peptides of protein M of SARS-CoV Urbani” value is recorded as 0.2, the “Binding of serum SARS-green to linear peptides of protein M of SARS-CoV Urbani” value was 0.7 and the “Binding of serum SARS-green to looped/cyclic peptides of protein M of SARS-CoV Urbani” value is recorded as 0.1. Moreover, in assay [1], the “Binding of serum SARS-yellow to linear peptides of protein M of SARS-CoV Urbani” value is 0.3 and the “Binding of serum SARS-yellow to looped/cyclic peptides of protein M of SARS-CoV Urbani” value is on record as 0.7. For the same sequence, in assay [2], the “Binding of Control Serum Blood-Bank to Looped peptides of the protein M of SARS-CoV Urbani” value came to 0.6, the “Binding of Control serum Blood-bank to linear peptides of the protein M of SARS-CoV Urbani” value came to 0.7, the “Binding of Control serum LUMC to linear peptides of the protein M of SARS-CoV Urbani” value is given as 0.9 and the “Binding of Control serum LUMC to looped peptides of the protein M of SARS-CoV Urbani” value came out at 0.7. Moreover, in assay [3], the “Rabbit serum linear peptides” value was found to be 0.2 and the “Rabbit serum looped peptides” value worked out at 0.3.
Turning to ATATIPLQASLPFGW, in assay [1], the “Binding of serum 1a to linear peptides of protein X1 of SARS-CoV Urbani” value is 0.9, the “Binding of serum 1a to looped/cyclic peptide (PEPSCAN-ELISA)” value is 0.6, the “Binding of serum 1b to linear peptides of protein X1 of SARS-CoV Urbani” value amounted to 0.7 and the “Binding of serum 1b to looped/cyclic peptide (PEPSCAN-ELISA)” value was found to be 0.5. In assay [1], the “Binding of serum 2 to linear peptides of protein X1 of SARS-CoV Urbani” value was 0.7, the “Binding of serum 2 to looped/cyclic peptide (PEPSCAN-ELISA)” value was found to be 0.5, the “Binding of serum 6 to linear peptides of protein X1 of SARS-CoV Urbani” value was found to be 0.7 and the “Binding of serum 6 to looped/cyclic peptide (PEPSCAN-ELISA)” value is 0.5. In assay [1], the “Binding of serum 37 to linear peptides of protein X1 of SARS-CoV Urbani” value is 0.7, the “Binding of serum 37 to looped/cyclic peptide (PEPSCAN-ELISA)” value is 0.7, the “Binding of serum 62 to linear peptides of protein X1 of SARS-CoV Urbani” value stood at 0.8 and the “Binding of serum 62 to looped/cyclic peptide (PEPSCAN-ELISA)” value was 0.7. In assay [1], the “Binding of serum London to linear peptides of protein X1 of SARS-CoV Urbani” value was 0.4, the “Binding of serum London to looped/cyclic peptide (PEPSCAN-ELISA)” value is recorded as 0.3, the “Binding of serum SARS-green to linear peptides of protein X1 of SARS-CoV Urbani” value is given as 0.4 and the “Binding of serum SARS-green to looped/cyclic peptide (PEPSCAN-ELISA)” value is recorded as 0.3. In addition, in assay [1], the “Binding of serum SARS-yellow to linear peptides of protein X1 of SARS-CoV Urbani” value was 0.5 and the “Binding of serum SARS-yellow to looped/cyclic peptide (PEPSCAN-ELISA)” value is on record as 0.4. Moreover, in assay [2], the “Binding of Control Serum Blood-Bank to Looped peptides” value was 0.8, the “Binding of Control serum Blood-bank to linear peptides” value worked out at 0.9, the “Binding of Control serum LUMC to linear peptides” value stood at 0.7 and the “Binding of Control serum LUMC to looped peptides” value is listed as 0.7. Moreover, in assay [3], the “Binding of a rabbit serum to linear peptides” value turned out to be 0.1 and the “Binding of a rabbit serum to looped peptides” value was 0.6.
